Experimental findings from US9675068B2, “Solid form sodium lauryl sulfate (SLS) crawling pest elimination composition” (ECOLAB USA INC., priority 2008, dated 2017) are described below.

A short description of this data set: Ability of SLS forms to go into solution in water. It is filed as physicochemical. The conditions noted are these: at 12% and 18%. From the text:
In one embodiment, the pesticide composition of the present invention includes a combination of sodium lauryl sulfate (SLS) and water. In particular, the pesticide composition includes a combination of a solid form of sodium lauryl sulfate and water. Suitable component concentrations for a concentrate of the pesticide composition include between about 90% and about 100% sodium lauryl sulfate by weight and balance water, particularly between about 93% and about 100% sodium lauryl sulfate by weight and balance water and more particularly between about 95% and about 100% sodium lauryl sulfate by weight and balance water. Suitable component concentrations for a use solution of the pesticide composition include between about 1% and about 10% sodium lauryl sulfate by weight and balance water and particularly between about 1% and about 6% sodium lauryl sulfate by weight and balance water. At concentrations higher than about 12% by weight sodium lauryl sulfate, solid form sodium lauryl sulfate may not effectively form a solution. In other embodiments, similar intermediate concentrate and use concentrations may also be present in the cleaning compositions of the invention.
The compositions of Examples 1, 2 and 3 are compositions of the present invention using needle form sodium lauryl sulfate (SLS) as the active ingredient in a pesticide composition. […]

SMILES strings stand for the structures.

Regarding `CCCCCCCCCCCCOS(=O)(=O)[O-].[Na+]` [needle form SLS, sodium lauryl sulfate], the “going into solution in water” value was “would not go into solution”.
